Measurements reported in paper PMC9104356, “Characterisation of a Novel Acetyl Xylan Esterase (BaAXE) Screened from the Gut Microbiota of the Common Black Slug (Arion ater)” (Molecules, 2022).

Tested on: T1, BaAXE (Gene_id_40363)
T1 construct: full-length 654 bp PCR product (about 218 residues), pDEST42, C-terminal 6xHis, E. coli BL21(DE3), 27 kDa by SDS-PAGE; forward primer CACCATGAAACATGACCAC encodes N-terminus MKHDH
Assay: spectrophotometric 4-nitrophenol release at […] nm, nonlinear Michaelis-Menten fit
Format: biochemical
Conditions: pH 8, 0.1-2 mM substrate; temperature not told for kinetics (standard assay 40 °C, 50 mM sodium phosphate, 150 mM NaCl, 0.01% Triton X-100)

Question: For `CC(=O)Oc1ccc([N+](=O)[O-])cc1` [4-NPA, 4-nitrophenyl acetate], which Km is on record?
Answer: 430 µM
